Assay results as given in ChEMBL document CHEMBL1201862, “PubChem BioAssay data set” (2004).
Activity calls are given as the source filed them.

Experiments:
[1] = molecular target: Induced myeloid leukemia cell differentiation protein Mcl-1 (Homo sapiens, UniProt Q07820); type: functional
Genome polyprotein = Genome polyprotein (dengue virus type 2, UniProt P29990); assay: flavivirus cap methylation enzyme inhibition – biochemical, confirmation dose response, primary screen (AID 588689); type: functional
[2] = molecular target: T1, Voltage-gated N-type calcium channel alpha-1B subunit/Amyloid beta A4 precursor protein-binding family A member 1 (Homo sapiens, UniProt Q00975+Q02410); type: protein assay
T1 sequence (Q00975 whole entry): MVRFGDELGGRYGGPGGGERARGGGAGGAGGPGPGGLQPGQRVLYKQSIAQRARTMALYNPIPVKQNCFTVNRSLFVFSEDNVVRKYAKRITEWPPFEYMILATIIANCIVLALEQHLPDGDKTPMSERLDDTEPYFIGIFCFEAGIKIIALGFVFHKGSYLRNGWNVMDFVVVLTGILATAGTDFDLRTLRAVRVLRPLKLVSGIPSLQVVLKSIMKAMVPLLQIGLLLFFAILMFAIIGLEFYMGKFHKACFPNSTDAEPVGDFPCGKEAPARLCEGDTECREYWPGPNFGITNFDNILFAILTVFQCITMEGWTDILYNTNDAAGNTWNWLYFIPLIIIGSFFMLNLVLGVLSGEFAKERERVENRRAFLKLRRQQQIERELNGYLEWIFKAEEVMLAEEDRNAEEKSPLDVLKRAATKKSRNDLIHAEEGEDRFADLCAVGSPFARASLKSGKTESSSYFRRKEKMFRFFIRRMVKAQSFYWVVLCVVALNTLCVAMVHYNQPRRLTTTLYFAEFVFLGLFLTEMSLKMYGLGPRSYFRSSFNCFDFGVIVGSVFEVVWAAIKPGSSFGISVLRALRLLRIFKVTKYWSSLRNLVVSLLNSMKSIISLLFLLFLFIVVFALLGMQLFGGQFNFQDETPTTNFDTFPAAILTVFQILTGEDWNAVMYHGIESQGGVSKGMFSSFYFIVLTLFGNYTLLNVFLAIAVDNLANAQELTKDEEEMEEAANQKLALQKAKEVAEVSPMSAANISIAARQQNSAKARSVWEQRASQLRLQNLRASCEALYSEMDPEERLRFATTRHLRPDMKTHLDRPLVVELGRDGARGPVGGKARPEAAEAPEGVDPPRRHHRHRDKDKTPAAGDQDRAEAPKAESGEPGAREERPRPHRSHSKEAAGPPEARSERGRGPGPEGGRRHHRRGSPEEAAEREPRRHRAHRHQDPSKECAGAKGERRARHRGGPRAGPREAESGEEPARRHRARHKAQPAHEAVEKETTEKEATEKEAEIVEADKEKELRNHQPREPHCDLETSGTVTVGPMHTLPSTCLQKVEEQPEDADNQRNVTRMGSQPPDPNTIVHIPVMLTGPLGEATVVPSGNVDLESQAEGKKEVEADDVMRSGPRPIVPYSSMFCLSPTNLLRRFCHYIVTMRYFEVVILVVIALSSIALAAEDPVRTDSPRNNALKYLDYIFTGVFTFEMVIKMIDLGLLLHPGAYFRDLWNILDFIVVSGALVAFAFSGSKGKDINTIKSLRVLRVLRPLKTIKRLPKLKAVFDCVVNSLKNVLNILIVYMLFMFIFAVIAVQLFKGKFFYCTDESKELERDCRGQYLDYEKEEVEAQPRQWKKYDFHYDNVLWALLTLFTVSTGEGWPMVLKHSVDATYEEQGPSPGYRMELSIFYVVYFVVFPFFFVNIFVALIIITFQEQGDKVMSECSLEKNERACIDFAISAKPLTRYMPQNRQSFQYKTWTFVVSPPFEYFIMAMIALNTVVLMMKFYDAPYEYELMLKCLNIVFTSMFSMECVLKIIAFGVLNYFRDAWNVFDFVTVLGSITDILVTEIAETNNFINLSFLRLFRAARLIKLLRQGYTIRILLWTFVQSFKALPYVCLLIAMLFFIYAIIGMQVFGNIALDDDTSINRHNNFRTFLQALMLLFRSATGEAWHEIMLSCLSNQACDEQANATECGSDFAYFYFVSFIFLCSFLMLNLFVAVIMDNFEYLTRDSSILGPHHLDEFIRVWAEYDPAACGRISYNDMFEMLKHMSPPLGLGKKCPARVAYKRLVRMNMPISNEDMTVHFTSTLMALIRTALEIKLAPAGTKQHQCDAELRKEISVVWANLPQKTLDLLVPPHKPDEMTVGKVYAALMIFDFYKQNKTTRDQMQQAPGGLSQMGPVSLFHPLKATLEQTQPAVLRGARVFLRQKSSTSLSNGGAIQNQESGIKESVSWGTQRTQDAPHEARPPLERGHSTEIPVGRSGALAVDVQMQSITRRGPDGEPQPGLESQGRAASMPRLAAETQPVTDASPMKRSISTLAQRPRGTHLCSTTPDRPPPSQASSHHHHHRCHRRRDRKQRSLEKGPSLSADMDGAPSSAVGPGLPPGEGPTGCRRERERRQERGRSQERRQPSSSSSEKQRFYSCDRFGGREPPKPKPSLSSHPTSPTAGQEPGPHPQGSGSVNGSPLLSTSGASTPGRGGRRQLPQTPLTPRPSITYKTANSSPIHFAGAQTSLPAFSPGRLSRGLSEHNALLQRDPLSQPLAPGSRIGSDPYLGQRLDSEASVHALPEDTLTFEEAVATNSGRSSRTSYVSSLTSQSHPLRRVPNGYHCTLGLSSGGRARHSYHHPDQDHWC
T1 sequence (Q02410 whole entry): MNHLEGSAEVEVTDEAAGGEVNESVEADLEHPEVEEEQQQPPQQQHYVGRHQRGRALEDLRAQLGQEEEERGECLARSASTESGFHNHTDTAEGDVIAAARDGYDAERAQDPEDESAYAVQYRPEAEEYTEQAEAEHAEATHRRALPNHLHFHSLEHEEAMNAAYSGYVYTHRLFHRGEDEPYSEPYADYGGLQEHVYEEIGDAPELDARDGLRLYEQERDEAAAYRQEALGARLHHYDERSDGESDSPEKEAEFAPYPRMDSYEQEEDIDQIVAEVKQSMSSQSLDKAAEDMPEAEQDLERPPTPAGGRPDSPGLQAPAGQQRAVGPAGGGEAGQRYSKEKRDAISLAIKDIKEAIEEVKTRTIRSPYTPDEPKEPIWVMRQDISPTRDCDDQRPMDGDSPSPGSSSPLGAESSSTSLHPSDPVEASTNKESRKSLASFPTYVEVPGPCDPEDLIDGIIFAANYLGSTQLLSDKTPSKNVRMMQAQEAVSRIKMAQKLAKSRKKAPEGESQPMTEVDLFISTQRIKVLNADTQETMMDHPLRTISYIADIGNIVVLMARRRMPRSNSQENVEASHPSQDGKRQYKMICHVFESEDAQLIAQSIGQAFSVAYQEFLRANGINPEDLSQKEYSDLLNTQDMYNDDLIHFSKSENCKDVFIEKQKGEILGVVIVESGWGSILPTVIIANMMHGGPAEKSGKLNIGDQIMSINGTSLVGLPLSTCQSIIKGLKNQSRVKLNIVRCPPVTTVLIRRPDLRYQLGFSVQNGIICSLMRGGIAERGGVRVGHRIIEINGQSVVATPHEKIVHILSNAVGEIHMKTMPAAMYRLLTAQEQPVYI

[3] = molecular target: T1, Voltage-gated N-type calcium channel alpha-1B subunit/Amyloid beta A4 precursor protein-binding family A member 1; type: protein assay; remark: listed apart in the source
[4] = molecular target: T2, Carboxy-terminal domain RNA polymerase II polypeptide A small phosphatase 1 (Homo sapiens, UniProt Q9GZU7); assay: CTDSP1 inhibitors, concentration-response, biochemical, absorbance readout, ultra-high-throughput screen actives (AID 540297); type: functional
T2 sequence (Q9GZU7 whole entry): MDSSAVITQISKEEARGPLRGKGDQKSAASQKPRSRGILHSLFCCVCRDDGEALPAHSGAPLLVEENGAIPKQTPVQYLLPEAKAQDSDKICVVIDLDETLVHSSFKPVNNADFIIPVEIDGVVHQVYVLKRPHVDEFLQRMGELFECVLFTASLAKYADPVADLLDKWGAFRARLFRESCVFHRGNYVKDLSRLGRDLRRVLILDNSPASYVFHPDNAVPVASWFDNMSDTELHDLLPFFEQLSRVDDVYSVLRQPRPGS

Large T antigen = Large T antigen (Simian virus 40, UniProt P03070); type: functional, Betapolyomavirus macacae;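 also: Confirmatory-stage PubChem screen for compounds that inhibit SV40 T antigen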
[5] = molecular target: DNA dC->dU-editing enzyme APOBEC-3G (Homo sapiens, UniProt Q9HC16); assay: Dose Response confirmation of small molecule APOBEC3G DNA Deaminase Inhibitors via a fluorescence-based single-stranded DNA deaminase assay. [Related pubchem assays (depositor defined):AID493012, AID493028]; type: functional
[6] = molecular target: DNA dC->dU-editing enzyme APOBEC-3A (Homo sapiens, UniProt P31941); assay: A3A deaminase inhibition for selectivity – biochemical, dose response (AID 504722); type: functional
DNA dC->dU-editing enzyme APOBEC-3A, sequence (P31941 whole entry): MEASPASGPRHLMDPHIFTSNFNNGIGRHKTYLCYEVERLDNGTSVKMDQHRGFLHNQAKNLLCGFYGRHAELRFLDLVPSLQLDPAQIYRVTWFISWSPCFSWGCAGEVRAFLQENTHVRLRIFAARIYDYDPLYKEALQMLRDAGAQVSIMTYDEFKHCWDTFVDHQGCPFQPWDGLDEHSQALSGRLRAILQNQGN

Nonstructural protein 1 = Nonstructural protein 1 (Influenza A virus, UniProt Q194T2); type: functional, Influenza A virus (A/California/07/2009(H1N1))
Nonstructural protein 1, sequence (Q194T2 whole entry, the tested form may be a part): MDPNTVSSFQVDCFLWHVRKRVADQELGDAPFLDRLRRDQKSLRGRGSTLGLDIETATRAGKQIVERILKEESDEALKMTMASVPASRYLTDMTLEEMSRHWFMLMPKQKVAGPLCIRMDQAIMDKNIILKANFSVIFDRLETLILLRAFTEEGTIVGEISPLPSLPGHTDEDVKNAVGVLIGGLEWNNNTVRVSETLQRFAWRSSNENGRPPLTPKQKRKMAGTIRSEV

[7] = off-target signal loss in HeLa-CEM21 co-culture – HeLa F-luc CTL cells, cherry-picked, counter-screen for HIV-1 Env fusion inhibitor project, dose response (AID 652040); type: functional, cell-based;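 also: potency for signal decrease marking cytotoxic or nonspecific inhibition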
[8] = blockers of HIV-1 ZM109 envelope-driven cell-cell fusion – HeLa effector, CEM target cells, luciferase, cherry-pick, dose response (AID 652058); type: functional, cell-based;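 also: luciferase signal from HIV-1 Env mediated cell-cell fusion of effector and target cells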
[9] = HIV-1 AD8 envelope cell-cell fusion blockers – cherry-pick, dose response (AID 652062); type: functional, cell-based;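 also: luciferase signal from cell-cell fusion driven by HIV-1 clade B AD8 Env; potency is for inhibitors of fusion seen as a drop in luminescence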
[10] = molecular target: NACHT, LRR and PYD domains-containing protein 3 (Homo sapiens, UniProt Q96P20); assay: NALP3 inhibitors in yeast, dose response, luminescent (AID 488799); type: functional
NACHT, LRR and PYD domains-containing protein 3, sequence (Q96P20 whole entry, the tested form may be a part): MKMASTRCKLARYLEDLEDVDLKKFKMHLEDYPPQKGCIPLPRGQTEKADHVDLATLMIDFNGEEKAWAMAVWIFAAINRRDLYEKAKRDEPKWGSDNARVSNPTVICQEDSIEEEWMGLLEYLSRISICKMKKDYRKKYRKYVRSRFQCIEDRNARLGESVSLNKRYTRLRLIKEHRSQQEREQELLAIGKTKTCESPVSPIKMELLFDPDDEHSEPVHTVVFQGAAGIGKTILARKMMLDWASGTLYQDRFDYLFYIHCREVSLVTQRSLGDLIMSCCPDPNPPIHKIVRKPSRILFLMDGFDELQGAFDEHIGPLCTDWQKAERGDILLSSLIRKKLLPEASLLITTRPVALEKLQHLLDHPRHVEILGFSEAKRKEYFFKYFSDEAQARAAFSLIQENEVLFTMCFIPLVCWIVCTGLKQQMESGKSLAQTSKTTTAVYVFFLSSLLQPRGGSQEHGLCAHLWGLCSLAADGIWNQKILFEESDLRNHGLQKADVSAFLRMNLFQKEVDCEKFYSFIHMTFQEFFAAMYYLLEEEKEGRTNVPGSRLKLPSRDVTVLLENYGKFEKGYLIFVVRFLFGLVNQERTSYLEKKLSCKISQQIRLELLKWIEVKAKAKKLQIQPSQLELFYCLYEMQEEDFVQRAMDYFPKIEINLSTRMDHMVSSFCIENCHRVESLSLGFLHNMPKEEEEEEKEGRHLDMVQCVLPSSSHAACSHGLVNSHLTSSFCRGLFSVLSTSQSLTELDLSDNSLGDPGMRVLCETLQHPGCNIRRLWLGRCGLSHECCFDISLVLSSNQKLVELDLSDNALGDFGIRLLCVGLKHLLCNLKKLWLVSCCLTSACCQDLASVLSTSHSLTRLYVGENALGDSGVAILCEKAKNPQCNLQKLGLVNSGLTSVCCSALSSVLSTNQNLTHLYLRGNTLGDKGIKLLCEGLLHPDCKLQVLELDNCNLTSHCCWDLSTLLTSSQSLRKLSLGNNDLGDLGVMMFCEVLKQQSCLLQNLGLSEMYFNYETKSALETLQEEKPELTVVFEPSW

[11] = viability loss in CEM21 cells – cell-based, CellTiter-Glo luminescence, cherry-picked, cytotoxicity control for viral fusion inhibitor project, dose response (AID 652042); type: functional;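 also: potency for signal decrease meaning cytotoxicity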
[12] = blockers of HIV-1 envelope-mediated cell-cell fusion – cherry-pick, dose response (AID 652057); type: functional, cell-based
[13] = HEK-293T viability loss after treatment – luminescence, T-cell screen hits, cytotoxicity control for TCR NF-kB inhibitor project, dose response (AID 489026); type: functional, cell-based;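 also: cells exposed to compound about 14 hours before the viability readout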
Protein Rev = Protein Rev (Human immunodeficiency virus type 1 group M subtype B (isolate HXB2)(HIV-1), UniProt P04618); assay: blockers of HIV Rev/RRE RNA complex – biochemical, fluorescence polarization, HIV-1, dose response (AID 434976); design: species or system Human immunodeficiency virus 1
[14] = molecular target: Female germline-specific tumor suppressor gld-1 (Caenorhabditis elegans, UniProt Q17339); assay: blockers of GLD-1/TGE RNA complex formation – biochemical, fluorescence polarization, C. elegans, dose response (AID 2802);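 also: fluorescence polarization of labeled TGE RNA bound by purified gld-1 protein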
[15] = molecular target: T3, Zinc finger protein mex-5 (Caenorhabditis elegans, UniProt Q9XUB2); assay: potency of MEX-5 RNA-binding blockers – biochemical, C. elegans, fluorescence polarization, dose response (AID 1960)
T3 sequence (Q9XUB2 whole entry): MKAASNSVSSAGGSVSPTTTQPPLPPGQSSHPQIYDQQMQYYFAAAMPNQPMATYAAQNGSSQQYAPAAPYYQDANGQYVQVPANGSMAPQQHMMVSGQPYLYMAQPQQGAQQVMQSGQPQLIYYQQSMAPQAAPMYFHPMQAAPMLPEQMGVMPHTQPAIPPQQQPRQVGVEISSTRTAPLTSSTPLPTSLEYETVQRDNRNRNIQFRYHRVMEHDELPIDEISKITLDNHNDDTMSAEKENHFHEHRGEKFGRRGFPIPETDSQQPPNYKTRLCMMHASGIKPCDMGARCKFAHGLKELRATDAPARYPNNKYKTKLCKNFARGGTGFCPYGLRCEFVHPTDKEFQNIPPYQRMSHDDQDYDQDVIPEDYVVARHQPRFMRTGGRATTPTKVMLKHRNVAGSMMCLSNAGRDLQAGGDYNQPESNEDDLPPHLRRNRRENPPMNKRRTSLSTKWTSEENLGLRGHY

[16] = molecular target: T4, RNA-binding protein pos-1 (Caenorhabditis elegans, UniProt G5EF15); assay: disruptors of C. elegans POS-1 RNA interaction – biochemical, fluorescence polarization, dose response (AID 1964);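 also: purified POS-1 fused to maltose binding protein made in E. coli; potency of compounds blocking POS-1 binding to fluorescent RNA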
T4 sequence (G5EF15 whole entry): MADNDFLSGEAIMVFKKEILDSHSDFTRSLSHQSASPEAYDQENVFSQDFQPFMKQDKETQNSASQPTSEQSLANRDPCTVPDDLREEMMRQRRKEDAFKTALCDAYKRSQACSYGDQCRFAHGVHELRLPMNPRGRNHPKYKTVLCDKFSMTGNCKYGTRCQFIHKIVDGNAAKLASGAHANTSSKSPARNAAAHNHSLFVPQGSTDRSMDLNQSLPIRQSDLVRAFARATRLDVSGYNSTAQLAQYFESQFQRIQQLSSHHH

[17] = Luminescence Cell-Based Dose Response HTS to Identify Activators of Luciferase Translation or Activity in H4 […] Cells. [Related pubchem assays: 1829 (Project Summary), 1814 (Primary HTS)]; type: functional
[18] = molecular target: T5, Sentrin-specific protease 6 (Homo sapiens, UniProt Q9GZR1); type: functional;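 also: Luminescence-based dose-response confirmatory assay of SENP6 inhibition, following up an ultra-high-throughput screen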
T5 sequence (Q9GZR1 whole entry): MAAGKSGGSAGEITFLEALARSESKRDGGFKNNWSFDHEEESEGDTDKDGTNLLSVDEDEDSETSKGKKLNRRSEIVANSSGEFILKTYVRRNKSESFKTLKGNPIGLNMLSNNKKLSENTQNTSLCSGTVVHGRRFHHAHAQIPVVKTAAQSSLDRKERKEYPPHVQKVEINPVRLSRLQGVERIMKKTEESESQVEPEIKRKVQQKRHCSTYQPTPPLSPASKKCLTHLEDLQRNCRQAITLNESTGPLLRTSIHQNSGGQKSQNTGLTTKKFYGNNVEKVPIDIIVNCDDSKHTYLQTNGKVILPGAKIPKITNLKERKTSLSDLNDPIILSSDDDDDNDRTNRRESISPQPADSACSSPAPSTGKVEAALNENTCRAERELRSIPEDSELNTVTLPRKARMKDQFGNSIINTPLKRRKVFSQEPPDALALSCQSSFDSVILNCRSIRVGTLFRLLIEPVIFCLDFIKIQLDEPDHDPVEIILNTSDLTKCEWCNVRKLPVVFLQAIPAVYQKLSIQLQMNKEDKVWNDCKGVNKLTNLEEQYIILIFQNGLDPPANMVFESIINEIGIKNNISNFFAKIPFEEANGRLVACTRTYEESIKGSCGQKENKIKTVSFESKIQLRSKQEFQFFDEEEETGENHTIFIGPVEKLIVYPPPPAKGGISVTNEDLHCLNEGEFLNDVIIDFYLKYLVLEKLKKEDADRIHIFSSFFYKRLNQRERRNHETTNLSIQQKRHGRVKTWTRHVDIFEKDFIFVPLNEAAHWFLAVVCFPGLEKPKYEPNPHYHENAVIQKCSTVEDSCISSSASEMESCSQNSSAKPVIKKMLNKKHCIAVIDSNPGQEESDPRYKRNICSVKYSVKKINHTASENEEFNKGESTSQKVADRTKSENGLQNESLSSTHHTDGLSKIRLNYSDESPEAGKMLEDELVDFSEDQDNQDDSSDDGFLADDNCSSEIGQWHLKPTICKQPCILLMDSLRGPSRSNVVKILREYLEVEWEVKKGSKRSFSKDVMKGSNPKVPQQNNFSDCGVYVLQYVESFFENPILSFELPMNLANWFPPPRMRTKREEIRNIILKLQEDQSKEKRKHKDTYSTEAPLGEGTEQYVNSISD

H4 = assay: Luminescence Cell-Based Dose Response HTS to Identify Activators of 5'UTR Stem-Loop Driven Prion Protein mRNA Translation in H4 Neuroglioblastoma Cells. [Related pubchem assays: 1829 (Project Summary), 1814 (Primary HTS)]; type: functional; settings: Homo sapiens
Caspase-3 = molecular target: T6, Caspase-3 (Homo sapiens, UniProt P42574); type: functional;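 also: Dose-response selectivity test against caspase-3 for candidate inhibitors of sentrin-specific proteases (SENPs)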
T6 sequence (P42574 whole entry): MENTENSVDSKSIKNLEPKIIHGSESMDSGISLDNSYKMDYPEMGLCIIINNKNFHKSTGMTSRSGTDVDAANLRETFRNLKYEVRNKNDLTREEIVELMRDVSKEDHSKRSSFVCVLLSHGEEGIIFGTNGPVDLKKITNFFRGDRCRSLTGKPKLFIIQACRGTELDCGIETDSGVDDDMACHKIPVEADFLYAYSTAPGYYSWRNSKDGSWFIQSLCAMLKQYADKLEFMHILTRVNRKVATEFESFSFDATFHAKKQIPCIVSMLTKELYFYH

[19] = molecular target: T7, Sentrin-specific protease 7 (Homo sapiens, UniProt Q9BQF6); type: functional;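 also: Luminescence-based dose-response confirmation of ultra-high-throughput screening hits, measuring inhibition of SENP7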
T7 sequence (Q9BQF6 whole entry): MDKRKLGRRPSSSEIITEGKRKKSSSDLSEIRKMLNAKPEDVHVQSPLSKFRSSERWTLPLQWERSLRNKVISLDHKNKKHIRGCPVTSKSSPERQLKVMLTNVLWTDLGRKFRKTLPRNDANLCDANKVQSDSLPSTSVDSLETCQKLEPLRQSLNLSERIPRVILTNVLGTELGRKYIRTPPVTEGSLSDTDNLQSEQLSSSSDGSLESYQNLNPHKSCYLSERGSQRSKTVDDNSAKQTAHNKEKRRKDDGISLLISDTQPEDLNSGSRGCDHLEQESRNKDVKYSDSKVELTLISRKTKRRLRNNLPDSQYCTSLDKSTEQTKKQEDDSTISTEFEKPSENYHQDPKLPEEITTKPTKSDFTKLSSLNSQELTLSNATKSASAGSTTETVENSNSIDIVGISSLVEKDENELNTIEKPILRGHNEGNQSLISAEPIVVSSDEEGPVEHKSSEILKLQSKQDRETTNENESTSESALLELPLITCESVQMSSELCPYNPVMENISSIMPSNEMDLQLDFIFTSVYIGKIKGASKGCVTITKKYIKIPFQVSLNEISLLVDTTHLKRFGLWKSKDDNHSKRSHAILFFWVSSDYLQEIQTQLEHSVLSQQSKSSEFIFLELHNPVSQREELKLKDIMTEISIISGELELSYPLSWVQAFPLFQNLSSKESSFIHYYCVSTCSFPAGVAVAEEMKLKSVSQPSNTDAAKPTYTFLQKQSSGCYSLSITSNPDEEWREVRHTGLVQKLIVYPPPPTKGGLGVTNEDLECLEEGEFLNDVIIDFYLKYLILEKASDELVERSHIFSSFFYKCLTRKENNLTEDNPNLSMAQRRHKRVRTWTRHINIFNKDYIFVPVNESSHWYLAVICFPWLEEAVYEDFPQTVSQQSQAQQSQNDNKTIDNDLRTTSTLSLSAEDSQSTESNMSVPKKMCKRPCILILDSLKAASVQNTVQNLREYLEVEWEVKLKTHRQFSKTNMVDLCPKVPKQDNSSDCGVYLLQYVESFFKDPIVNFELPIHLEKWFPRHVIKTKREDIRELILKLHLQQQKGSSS

[20] = molecular target: T8, Sentrin-specific protease 8 (Homo sapiens, UniProt Q96LD8); type: functional;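 also: luminescence read-out of SENP8 inhibition, dose-response confirmation following an ultra-high-throughput screen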
T8 sequence (Q96LD8 whole entry): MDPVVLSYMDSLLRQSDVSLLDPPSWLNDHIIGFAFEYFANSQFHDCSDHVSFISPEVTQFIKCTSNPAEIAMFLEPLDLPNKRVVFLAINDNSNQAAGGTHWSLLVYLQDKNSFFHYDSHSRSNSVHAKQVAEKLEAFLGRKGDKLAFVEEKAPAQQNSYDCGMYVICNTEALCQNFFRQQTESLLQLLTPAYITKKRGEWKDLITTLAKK

Induced myeloid leukemia cell differentiation protein Mcl-1, sequence (Q07820 whole entry): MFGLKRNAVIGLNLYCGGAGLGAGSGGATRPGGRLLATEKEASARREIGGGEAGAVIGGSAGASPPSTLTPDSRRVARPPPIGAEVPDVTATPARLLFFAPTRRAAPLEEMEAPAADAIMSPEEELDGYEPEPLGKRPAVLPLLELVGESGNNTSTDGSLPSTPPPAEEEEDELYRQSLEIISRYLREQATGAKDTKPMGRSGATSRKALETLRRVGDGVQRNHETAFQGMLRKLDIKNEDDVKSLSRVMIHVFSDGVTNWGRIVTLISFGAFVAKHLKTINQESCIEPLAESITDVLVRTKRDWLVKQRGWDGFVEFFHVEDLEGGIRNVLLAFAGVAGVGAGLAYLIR

O=C(O)CCn1cc(C=C2C(=O)NC(=S)NC2=O)c(-c2cccc(Cl)c2)n1
IC50 [1]: 2.87 µM (active)
IC50 (Genome polyprotein): 10.9 µM (active)
IC50 [2]: 13 µM (active)
IC50 [3]: 30.7 µM (active)
IC50 [4]: 10.1 µM (active)
IC50 (Large T antigen): 76.3 µM (active)

Cc1ccccc1/C=N/n1c(S)nnc1-c1ccccn1
IC50 [5]: 4.13 µM (active)
IC50 [6]: > 100 µM (inactive)

CCN(CC)c1ccc2nc3ccc(N)cc3[n+](-c3ccccc3)c2c1
IC50 (Nonstructural protein 1): 8.47 µM (active)
AC50 [7]: 1.41 µM (active)
AC50 [8]: 1.28 µM (active)
AC50 [9]: 3.84 µM (active)
IC50 [10]: 4.79 µM (active)
AC50 [11]: 3.25 µM (active)
AC50 [12]: 3.78 µM (active)
IC50 [13]: 67.7 µM (inactive)

Nc1c(O)ccc2c1C(=O)c1ccccc1C2=O
IC50 [1]: 3.66 µM (not active)
IC50 (Protein Rev): > 75.4 µM (not active)
IC50 [14]: 4.15 µM (active)
EC50 [15]: 10.4 µM (active)
EC50 [16]: > 300 µM (not active)

CCCC1CCC(c2ccc(OCC)cc2)=CC1=O (stereo not drawn)
EC50 [17]: 0.126 µM (active)
IC50 [18]: 29.6 µM (active)
EC50 (H4): 20.7 µM (inconclusive)
IC50 (Caspase-3): 21.3 µM (active)
IC50 [10]: 53.9 µM (active)
IC50 [19]: 10.1 µM (active)
IC50 [20]: 40.2 µM (active)
